Source: ChEMBL document CHEMBL1133249, “Combined tachykinin receptor antagonist: synthesis and stereochemical structure-activity relationships of novel morpholine analogues” (Bioorg Med Chem Lett, 2000)

How the values were obtained:
Substance-P receptor = Substance-P receptor (Cavia porcellus, UniProt P30547); assay: The compound was evaluated in vitro for its ability to displace [3H]SP from Tachykinin receptor 1 of male guinea pig lung membrane; type: tissue-based
Neuromedin-K receptor = biological target: T1, Neuromedin-K receptor (Cavia porcellus, UniProt P30098); assay: The compound was evaluated in vitro for its ability to displace [3H]SP from Tachykinin receptor 3 of male guinea pig lung membrane; type: tissue-based
T1 sequence (P30098 whole entry): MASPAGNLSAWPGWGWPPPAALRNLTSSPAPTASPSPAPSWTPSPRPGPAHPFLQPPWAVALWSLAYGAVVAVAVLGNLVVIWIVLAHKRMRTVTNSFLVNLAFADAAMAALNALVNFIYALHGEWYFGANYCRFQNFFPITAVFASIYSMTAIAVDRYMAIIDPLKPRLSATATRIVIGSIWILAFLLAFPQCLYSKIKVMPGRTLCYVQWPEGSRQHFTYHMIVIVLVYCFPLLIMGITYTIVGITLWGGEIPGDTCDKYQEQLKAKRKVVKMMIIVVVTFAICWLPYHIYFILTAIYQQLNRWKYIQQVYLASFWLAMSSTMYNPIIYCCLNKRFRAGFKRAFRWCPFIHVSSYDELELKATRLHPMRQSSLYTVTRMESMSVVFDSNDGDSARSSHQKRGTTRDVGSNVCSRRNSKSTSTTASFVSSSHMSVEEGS

Substance-K receptor = biological target: T2, Substance-K receptor (Cavia porcellus, UniProt Q64077); assay: The compound was evaluated in vitro for its ability to displace [3H]SP from Tachykinin receptor 2 of male guinea pig lung membrane; type: tissue-based
T2 sequence (Q64077 whole entry): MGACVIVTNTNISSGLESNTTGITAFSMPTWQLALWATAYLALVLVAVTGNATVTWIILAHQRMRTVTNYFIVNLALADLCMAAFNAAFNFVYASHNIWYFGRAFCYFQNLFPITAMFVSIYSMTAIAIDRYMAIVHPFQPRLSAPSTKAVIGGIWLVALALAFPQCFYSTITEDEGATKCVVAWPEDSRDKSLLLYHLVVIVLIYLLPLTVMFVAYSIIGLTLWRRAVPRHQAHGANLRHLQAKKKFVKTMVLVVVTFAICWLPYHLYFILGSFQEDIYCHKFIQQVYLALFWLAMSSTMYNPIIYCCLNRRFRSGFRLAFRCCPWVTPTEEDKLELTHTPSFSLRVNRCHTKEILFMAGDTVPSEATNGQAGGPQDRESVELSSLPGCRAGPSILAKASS

Cavia porcellus [1] = assay: Inhibitory effect of compound was evaluated after intravenous administration on SP-induced plasma protein extravasation, mediated by NK1 receptors in guinea pig airways; type: functional; conditions: read-out: ID50 (the source's name)
Cavia porcellus [2] = assay: Inhibitory effect was evaluated after intravenous administration on bronchoconstriction induced by NKA receptor in guinea pigs; type: functional; conditions: read-out: ID50 (the source's name)
Cavia porcellus [3] = assay: Inhibitory effect was evaluated after intravenous administration on bronchoconstriction induced by NKB receptor in guinea pigs; type: functional; conditions: read-out: ID50 (the source's name)

Sequence of Substance-P receptor (P30547 whole entry): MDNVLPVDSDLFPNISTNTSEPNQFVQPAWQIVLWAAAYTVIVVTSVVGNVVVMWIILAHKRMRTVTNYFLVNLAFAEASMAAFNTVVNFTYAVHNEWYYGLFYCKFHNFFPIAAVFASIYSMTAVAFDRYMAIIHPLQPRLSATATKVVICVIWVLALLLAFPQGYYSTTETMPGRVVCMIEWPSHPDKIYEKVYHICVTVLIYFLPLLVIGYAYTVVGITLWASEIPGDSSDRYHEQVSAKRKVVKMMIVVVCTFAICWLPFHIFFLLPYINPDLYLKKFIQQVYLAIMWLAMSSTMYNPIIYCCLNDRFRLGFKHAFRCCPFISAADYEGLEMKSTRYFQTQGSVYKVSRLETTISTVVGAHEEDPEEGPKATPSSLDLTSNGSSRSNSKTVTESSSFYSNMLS

| Compound | IC50 (Substance-P receptor) | IC50 (Neuromedin-K receptor) | IC50 (Substance-K receptor) | ED50 (Cavia porcellus [1]) | ED50 (Cavia porcellus [2]) | ED50 (Cavia porcellus [3]) |
| --- | --- | --- | --- | --- | --- | --- |
| COc1cc(C(=O)N2CCO[C@](CCN3CCC4(CC3)c3ccccc3C[S@@+]4[O-])(c3ccc(Cl)c(Cl)c3)C2)cc(OC)c1OC | 0.22 µM | 0.011 µM | 0.059 µM | – | – | – |
| COc1cc(C(=O)N2CCO[C@](CCN3CCC4(CC3)c3ccccc3C[S@+]4[O-])(c3ccc(Cl)c(Cl)c3)C2)cc(OC)c1OC | 0.021 µM | 0.00072 µM | 0.0031 µM | – | – | – |
| COc1cc(C(=O)N2CCO[C@@](CCN3CCC4(CC3)c3ccccc3C[S@@+]4[O-])(c3ccc(Cl)c(Cl)c3)C2)cc(OC)c1OC (racemic) | > 1 µM | 0.66 µM | > 1 µM | – | – | – |
| COc1cc(C(=O)N2CCOC(CCN3CCC4(CC3)c3ccccc3C[S+]4[O-])(c3ccc(Cl)c(Cl)c3)C2)cc(OC)c1OC.Cl (configuration not stated) | – | – | – | 0.33 mg/kg | 0.04 mg/kg | 0.063 mg/kg |

Second part, led by results:

| IC50 (Substance-P receptor) | IC50 (Neuromedin-K receptor) | IC50 (Substance-K receptor) | Compound | ED50 (Cavia porcellus [1]) | ED50 (Cavia porcellus [2]) | ED50 (Cavia porcellus [3]) |
| --- | --- | --- | --- | --- | --- | --- |
| > 1 µM | 0.52 µM | > 1 µM | COc1cc(C(=O)N2CCO[C@@](CCN3CCC4(CC3)c3ccccc3C[S@+]4[O-])(c3ccc(Cl)c(Cl)c3)C2)cc(OC)c1OC | – | – | – |
| > 1 µM | > 1 µM | > 1 µM | COc1cc(C(=O)N2CCO[C@@](CCN3CCC4(CC3)c3ccccc3C[C@@H]4O)(c3ccc(Cl)c(Cl)c3)C2)cc(OC)c1OC | – | – | – |
| > 1 µM | > 1 µM | > 1 µM | COc1cc(C(=O)N2CCO[C@@](CCN3CCC4(CC3)c3ccccc3C[C@H]4O)(c3ccc(Cl)c(Cl)c3)C2)cc(OC)c1OC (racemic) | – | – | – |
| 0.04 µM | 0.0027 µM | 0.0068 µM | COc1cc(C(=O)N2CCO[C@](CCN3CCC4(CC3)c3ccccc3C[C@@H]4O)(c3ccc(Cl)c(Cl)c3)C2)cc(OC)c1OC | – | – | – |
| 0.27 µM | 0.017 µM | 0.045 µM | COc1cc(C(=O)N2CCO[C@](CCN3CCC4(CC3)c3ccccc3C[C@H]4O)(c3ccc(Cl)c(Cl)c3)C2)cc(OC)c1OC | – | – | – |
